In article PMC8955307, “Nucleobase-Derived Nitrones: Synthesis and Antioxidant and Neuroprotective Activities in an In Vitro Model of Ischemia–Reperfusion” (International Journal of Molecular Sciences, 2022):

Legend:
[1] = target: T1, Soybean Lipoxygenase (SLOX) (Glycine max, UniProt P08170); assay: In vitro inhibition of soybean lipoxygenase (UV absorbance-based enzyme assay); format: biochemical; settings: for IC50: soybean LOX, sodium linoleate substrate, pH 9
T1 sequence (P08170 1-839): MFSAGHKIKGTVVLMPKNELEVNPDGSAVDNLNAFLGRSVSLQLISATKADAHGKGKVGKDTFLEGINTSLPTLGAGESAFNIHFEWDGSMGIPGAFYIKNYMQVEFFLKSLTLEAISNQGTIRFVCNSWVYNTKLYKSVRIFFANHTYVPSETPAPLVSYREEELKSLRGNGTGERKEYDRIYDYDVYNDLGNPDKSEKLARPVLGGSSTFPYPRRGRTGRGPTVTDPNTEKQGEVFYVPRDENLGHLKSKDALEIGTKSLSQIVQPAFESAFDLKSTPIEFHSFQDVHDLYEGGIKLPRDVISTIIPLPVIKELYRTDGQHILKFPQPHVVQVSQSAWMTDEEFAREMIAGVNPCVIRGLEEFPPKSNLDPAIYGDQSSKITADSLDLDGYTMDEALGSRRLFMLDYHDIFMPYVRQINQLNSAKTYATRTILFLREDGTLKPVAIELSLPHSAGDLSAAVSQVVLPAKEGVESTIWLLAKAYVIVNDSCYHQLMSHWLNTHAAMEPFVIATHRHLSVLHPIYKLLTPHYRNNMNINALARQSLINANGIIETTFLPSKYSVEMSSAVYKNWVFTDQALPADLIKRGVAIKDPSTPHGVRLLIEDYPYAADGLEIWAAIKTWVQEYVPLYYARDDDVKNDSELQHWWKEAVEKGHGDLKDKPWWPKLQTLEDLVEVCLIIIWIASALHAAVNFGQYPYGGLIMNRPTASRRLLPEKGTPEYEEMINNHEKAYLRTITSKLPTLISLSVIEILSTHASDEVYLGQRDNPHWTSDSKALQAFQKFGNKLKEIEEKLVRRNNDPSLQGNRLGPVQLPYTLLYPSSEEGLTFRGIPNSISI
Method: The experimental conditions followed our previously reported protocol. Sodium linoleate was used as a substrate (0.1 mM) with 0.2 mL of the saline solution of SLOX (1/9 × 10^−4 w/v) in the Tris buffer pH 9.

[2] = Inhibition of lipid peroxidation (ILPO), AAPH protocol with sodium linoleate; settings: tested at 100 µM
Method: The reactants consisting of 10 µL (16 mM) sodium linoleate, 10 µL of the tested nitrones in DMSO (final concentration 100 µM), 50 µL of AAPH ([…]) as a free radical initiator, 930 µL phosphate buffer pH 7.4 (0.05 M) at 37 °C under air, were mixed and the reaction’s result (as absorbance value) was recorded at 234 nm in comparison to PBN as a reference.

[3] = Reducing ability: interaction with DPPH; settings: tested at 100 µM
[4] = system: human neuroblastoma SH-SY5Y cells; assay: Basal neurotoxicity: cell viability under basal conditions; format: cell-based
Method: Cell viability measurements were carried out in human neuroblastoma cells SHSY5Y using 96-well culture plates, containing about 0.5–1 × 10^5 cells/well, after the OGD-R24h or control treatment including 0.01–1000 µM of the different testing compounds (nitrones 9a–g, PBN, and NAC), utilizing the Cell Proliferation Kit II (XTT), Sigma Aldrich, Madrid, Spain, which determines the culture’s metabolic capacity, as described in [21, 22]. XTT solution (0.3 mg/mL final concentration) was added to the seeded cells, incubated for 2 h at 37 °C with 5% CO2 and 95% air (v/v), and a spectrophotometer reader (Biotek Power-Wave XS microplate-reader (BioTek Instruments, Madrid, Spain) was used to register the absorbance at 450 nm (reference 650 nm) of the soluble formazan product generated. 100% viability was set by control normoxic cells treated with medium only, and control cells were added 0.001–1% DMSO in every assay.

Compound	IC50 [1] [µM]	melting point	LOX (%) inhibition ([1]; tested at 100 µM) [%]	ILPO (%) [2] [%]	DPPH (%) [3] [%]	Neurotoxic effects at basal level (cell viability) [4]
Cc1cn(C/C=[N+](/C)[O-])c(=O)[nH]c1=O [9b]	79	182 °C (dec.)		55	11	
C/[N+]([O-])=C/Cn1cc(Cl)c(=O)[nH]c1=O [9e]	65	180 °C (dec.)		68	13	
C/[N+]([O-])=C/Cn1cc(Br)c(=O)n(C/C=[N+](/C)[O-])c1=O [9i]	57.5			71	76	
CC(C)(C)[N+]([O-])=Cc1ccccc1 [PBN, α-phenyl-N-tert-butylnitrone, reference compound]			23	11		did not show any neurotoxic effects

Continued, in another order:

IC50 [1] [µM]	melting point	LOX (%) inhibition ([1]; tested at 100 µM) [%]	Compound	ILPO (%) [2] [%]	DPPH (%) [3] [%]	Neurotoxic effects at basal level (cell viability) [4]
31	211 °C (dec.)		C/[N+]([O-])=C/Cn1cnc2c(N)ncnc21 [9f]		9	
35	180 °C (dec.)		C/[N+]([O-])=C/Cn1cc(Br)c(=O)[nH]c1=O [9d]		6	
